In ChEMBL document CHEMBL1759957, “Synthesis and antibacterial evaluation of novel 8-fluoro Norfloxacin derivatives as potential probes for methicillin and vancomycin-resistant Staphylococcus aureus” (2011):
Values after ≈ are worked out from the molar mass of the structure shown.

Columns and labels:
Assay in all cases: microbe, parasite or virus in culture
Format in all cases: functional
Staphylococcus aureus [1] = details: ATCC 25923, 24 h
Description: Antibacterial activity against methicillin- resistant Staphylococcus aureus ATCC 25923 after 24 hrs by spectrophotometry

Staphylococcus aureus [2] = details: ATCC 29213, 24 h
Description: Antibacterial activity against methicillin- resistant and vancomycin resistant Staphylococcus aureus ATCC 29213 after 24 hrs by spectrophotometry

Klebsiella pneumoniae = details: ATCC 27736, 24 h
Description: Antibacterial activity against Klebsiella pneumoniae ATCC 27736 after 24 hrs by spectrophotometry

| Structure (SMILES) | MIC (Staphylococcus aureus [1]) | MIC (Staphylococcus aureus [2]) | MIC (Klebsiella pneumoniae) |
| --- | --- | --- | --- |
| CCCNc1nc(NCCC)nc(N2CCN(c3c(F)cc4c(=O)c(C(=O)O)cn(CC)c4c3F)CC2)n1 | 0.78 mg/L (≈ 1.47 µM) | 0.78 mg/L (≈ 1.47 µM) | 0.19 mg/L (≈ 0.358 µM) |
| CCn1cc(C(=O)O)c(=O)c2cc(F)c(N3CCN(c4nc(NC(C)C)nc(NC(C)C)n4)CC3)c(F)c21 | 0.39 mg/L (≈ 0.735 µM) | 0.78 mg/L (≈ 1.47 µM) | 0.39 mg/L (≈ 0.735 µM) |
| O=C(O)c1cn(Cc2ccc(C(F)(F)F)cc2)c2c(F)c(N3CCN(c4nc(N5CCOCC5)nc(N5CCOCC5)n4)CC3)c(F)cc2c1=O | 3.12 mg/L (≈ 4.35 µM) | 1.56 mg/L (≈ 2.18 µM) | 1.56 mg/L (≈ 2.18 µM) |
| O=C(O)c1cn(Cc2ccc(C(F)(F)F)cc2)c2c(F)c(N3CCN(c4nc(N5CCCCC5)nc(N5CCCCC5)n4)CC3)c(F)cc2c1=O | 50 mg/L (≈ 70.2 µM) | – | 50 mg/L (≈ 70.2 µM) |
| CN1CCN(c2nc(N3CCN(C)CC3)nc(N3CCN(c4cc5c(cc4F)c(=O)c(C(=O)O)cn5Cc4ccc(C(F)(F)F)cc4)CC3)n2)CC1 | 25 mg/L (≈ 34.5 µM) | – | 12.5 mg/L (≈ 17.2 µM) |
| O=C(O)c1cn(Cc2ccc(C(F)(F)F)cc2)c2c(F)c(N3CCN(c4nc(NCCN5CCOCC5)nc(NCCN5CCOCC5)n4)CC3)c(F)cc2c1=O | 12.5 mg/L (≈ 15.6 µM) | – | 6.25 mg/L (≈ 7.79 µM) |
| O=C(O)c1cn(Cc2ccc(C(F)(F)F)cc2)c2c(F)c(N3CCN(c4nc(NCCCN5CCOCC5)nc(NCCCN5CCOCC5)n4)CC3)c(F)cc2c1=O | > 50 mg/L | – | 50 mg/L (≈ 60.2 µM) |
| CCCCNc1nc(NCCCC)nc(N2CCN(c3c(F)cc4c(=O)c(C(=O)O)cn(Cc5ccc(C(F)(F)F)cc5)c4c3F)CC2)n1 | 3.12 mg/L (≈ 4.53 µM) | 0.39 mg/L (≈ 0.566 µM) | 0.39 mg/L (≈ 0.566 µM) |
| CC(C)(C)Nc1nc(NC(C)(C)C)nc(N2CCN(c3c(F)cc4c(=O)c(C(=O)O)cn(Cc5ccc(C(F)(F)F)cc5)c4c3F)CC2)n1 | 3.12 mg/L (≈ 4.53 µM) | 6.25 mg/L (≈ 9.08 µM) | 1.56 mg/L (≈ 2.27 µM) |
| CCCNc1nc(NCCC)nc(N2CCN(c3c(F)cc4c(=O)c(C(=O)O)cn(Cc5ccc(C(F)(F)F)cc5)c4c3F)CC2)n1 | 1.56 mg/L (≈ 2.36 µM) | 1.56 mg/L (≈ 2.36 µM) | 0.78 mg/L (≈ 1.18 µM) |
| CC(C)Nc1nc(NC(C)C)nc(N2CCN(c3c(F)cc4c(=O)c(C(=O)O)cn(Cc5ccc(C(F)(F)F)cc5)c4c3F)CC2)n1 | 0.78 mg/L (≈ 1.18 µM) | 0.78 mg/L (≈ 1.18 µM) | 0.39 mg/L (≈ 0.59 µM) |
| CCn1cc(C(=O)O)c(=O)c2cc(F)c(N3CCN(c4cc(C)nc(N5CCOCC5)n4)CC3)c(F)c21 | 0.39 mg/L (≈ 0.758 µM) | 0.045 mg/L (≈ 0.0875 µM) | 0.045 mg/L (≈ 0.0875 µM) |
| CCn1cc(C(=O)O)c(=O)c2cc(F)c(N3CCN(c4cc(C)nc(N5CCCCC5)n4)CC3)c(F)c21 | 0.39 mg/L (≈ 0.761 µM) | 0.39 mg/L (≈ 0.761 µM) | 0.045 mg/L (≈ 0.0878 µM) |
| CCn1cc(C(=O)O)c(=O)c2cc(F)c(N3CCN(c4cc(C)nc(N5CCN(C)CC5)n4)CC3)cc21 | > 50 mg/L | – | > 50 mg/L |
| CCn1cc(C(=O)O)c(=O)c2cc(F)c(N3CCN(c4cc(C)nc(NCCN5CCOCC5)n4)CC3)c(F)c21 | 0.22 mg/L (≈ 0.395 µM) | 0.19 mg/L (≈ 0.341 µM) | 0.22 mg/L (≈ 0.395 µM) |
| CCn1cc(C(=O)O)c(=O)c2cc(F)c(N3CCN(c4cc(C)nc(NCCCN5CCOCC5)n4)CC3)c(F)c21 | 0.22 mg/L (≈ 0.385 µM) | 0.19 mg/L (≈ 0.332 µM) | 0.22 mg/L (≈ 0.385 µM) |

| Structure (SMILES) | MIC (Staphylococcus aureus [1]) | MIC (Staphylococcus aureus [2]) | MIC (Klebsiella pneumoniae) |
| --- | --- | --- | --- |
| CCCCNc1nc(C)cc(N2CCN(c3c(F)cc4c(=O)c(C(=O)O)cn(CC)c4c3F)CC2)n1 | 0.78 mg/L (≈ 1.56 µM) | 0.09 mg/L (≈ 0.18 µM) | 0.78 mg/L (≈ 1.56 µM) |
| CCn1cc(C(=O)O)c(=O)c2cc(F)c(N3CCN(c4cc(C)nc(NC(C)(C)C)n4)CC3)c(F)c21 | 1.56 mg/L (≈ 3.12 µM) | 0.78 mg/L (≈ 1.56 µM) | 0.78 mg/L (≈ 1.56 µM) |
| CCCNc1nc(C)cc(N2CCN(c3c(F)cc4c(=O)c(C(=O)O)cn(CC)c4c3F)CC2)n1 | 0.39 mg/L (≈ 0.802 µM) | 0.39 mg/L (≈ 0.802 µM) | 0.09 mg/L (≈ 0.185 µM) |
| CCn1cc(C(=O)O)c(=O)c2cc(F)c(N3CCN(c4cc(C)nc(NC(C)C)n4)CC3)c(F)c21 | 0.22 mg/L (≈ 0.452 µM) | 0.19 mg/L (≈ 0.391 µM) | 0.011 mg/L (≈ 0.0226 µM) |
| Cc1cc(N2CCN(c3c(F)cc4c(=O)c(C(=O)O)cn(Cc5ccc(C(F)(F)F)cc5)c4c3F)CC2)nc(N2CCOCC2)n1 | 1.56 mg/L (≈ 2.42 µM) | 1.56 mg/L (≈ 2.42 µM) | 0.78 mg/L (≈ 1.21 µM) |
| Cc1cc(N2CCN(c3c(F)cc4c(=O)c(C(=O)O)cn(Cc5ccc(C(F)(F)F)cc5)c4c3F)CC2)nc(N2CCCCC2)n1 | 0.78 mg/L (≈ 1.21 µM) | 0.39 mg/L (≈ 0.607 µM) | 0.39 mg/L (≈ 0.607 µM) |
| Cc1cc(N2CCN(c3cc4c(cc3F)c(=O)c(C(=O)O)cn4Cc3ccc(C(F)(F)F)cc3)CC2)nc(N2CCN(C)CC2)n1 | 6.25 mg/L (≈ 9.77 µM) | 12.5 mg/L (≈ 19.5 µM) | 6.25 mg/L (≈ 9.77 µM) |
| Cc1cc(N2CCN(c3c(F)cc4c(=O)c(C(=O)O)cn(Cc5ccc(C(F)(F)F)cc5)c4c3F)CC2)nc(NCCN2CCOCC2)n1 | 0.78 mg/L (≈ 1.13 µM) | 1.56 mg/L (≈ 2.27 µM) | 1.56 mg/L (≈ 2.27 µM) |
| Cc1cc(N2CCN(c3c(F)cc4c(=O)c(C(=O)O)cn(Cc5ccc(C(F)(F)F)cc5)c4c3F)CC2)nc(NCCCN2CCOCC2)n1 | 25 mg/L (≈ 35.6 µM) | – | 6.25 mg/L (≈ 8.91 µM) |
| CCCCNc1nc(C)cc(N2CCN(c3c(F)cc4c(=O)c(C(=O)O)cn(Cc5ccc(C(F)(F)F)cc5)c4c3F)CC2)n1 | 6.25 mg/L (≈ 9.91 µM) | 1.56 mg/L (≈ 2.47 µM) | 6.25 mg/L (≈ 9.91 µM) |
| Cc1cc(N2CCN(c3c(F)cc4c(=O)c(C(=O)O)cn(Cc5ccc(C(F)(F)F)cc5)c4c3F)CC2)nc(NC(C)(C)C)n1 | 1.56 mg/L (≈ 2.47 µM) | 1.56 mg/L (≈ 2.47 µM) | 0.19 mg/L (≈ 0.301 µM) |
| CCCNc1nc(C)cc(N2CCN(c3c(F)cc4c(=O)c(C(=O)O)cn(Cc5ccc(C(F)(F)F)cc5)c4c3F)CC2)n1 | 1.56 mg/L (≈ 2.53 µM) | 3.12 mg/L (≈ 5.06 µM) | 1.56 mg/L (≈ 2.53 µM) |
| Cc1cc(N2CCN(c3c(F)cc4c(=O)c(C(=O)O)cn(Cc5ccc(C(F)(F)F)cc5)c4c3F)CC2)nc(NC(C)C)n1 | 0.78 mg/L (≈ 1.27 µM) | 0.78 mg/L (≈ 1.27 µM) | 0.19 mg/L (≈ 0.308 µM) |
| CCn1cc(C(=O)O)c(=O)c2cc(F)c(N3CCNCC3)c(F)c21 | 0.78 mg/L (≈ 2.31 µM) | 0.39 mg/L (≈ 1.16 µM) | 0.045 mg/L (≈ 0.133 µM) |
| CCn1cc(C(=O)O)c(=O)c2cc(F)c(N3CCN(C)CC3)c(F)c21 | 0.19 mg/L (≈ 0.541 µM) | 0.19 mg/L (≈ 0.541 µM) | 0.011 mg/L (≈ 0.0313 µM) |
